Bounds are passed on as bounds.

A short description of data set [1]: Stability of Coumarin preparations over several days stored at room temperature (size, PDI). Particulars: for Size: in nm (unit assumed). In kind it is physicochemical. The text has this: The fluorescence intensity of a Coumarin 6 nanoemulsion can be increased by adding a polysaccharide polymer such as dextran to the SANE formulation. As described in Example 2, the fluorescent dye Coumarin 6 SANE composition can optionally comprise dextran to increase fluorescence intensity of the SANE dye composition. Example 2 describes preparation of Coumarin 6 SANE dye formulations with and without the addition of the polymer dextran. Example 2 also describes measured particle size, stability and fluorescence intensity determined in samples of (a) DMSO coumarin 6 preparation, (b) nanoemulsion of coumarin 6 preparation without dextran, and (c) nanoemulsion of coumarin 6 with dextran.
As shown by the data in Table 2 is that over a 3 day period, these SANE preparations of Coumarin 6 were stable (determined by particle size changes) at room temperature for at least 3 days compared to the DMSO coumarin 6 preparation.
Particle sizes of all the formulations indicated in the Examples below were measured by dynamic laser light scattering, also called Photon correlation spectroscopy, using the Malvern Zetasizer-S instrument (Malvern Instruments Inc., Southborough Mass.). Each sample was diluted immediately before measurement with distilled water to avoid multiple light scattering effects. […] The particle diffusion (translational diffusion) due to Brownian motion was measured in the instrument and related to the size of the parameter. The mean hydrodynamic diameter (DH) was calculated from the Strokes-Einstein equation. The range of particle sizes which can be measured by the Zetasizer is from 0.6 to 6000 nm.

The nature of data set [2]: Electrokinetic potential (zeta potential). Particulars: at 10 mv. In kind it is physicochemical. The procedure:
The electrokinetic potential (“Zeta-potential”) of the curcumin nanoemulsion was measured (FIG. 10A) and compared to the corresponding electrokinetic potential for curcumin in water (FIG. 10B). The zeta potential of a colloidal system corresponds to the electric potential in the interfacial double layer (DL) at the location of the slipping plane versus a point in the bulk fluid away from the interface (i.e., the potential difference between the dispersion medium and the stationary layer of fluid attached to the dispersed particle). For small particles (e.g., nanoemulsions) a higher zeta potential corresponds to greater stability of a colloidal dispersion, representing a greater degree of repulsion between adjacent particles in the dispersion to resist particle/droplet aggregation. A zeta potential of −23.5 (wall zeta potential of −50.3) was measured for the curcumin nanoemulsion (FIG. 10A), compared to a zeta wall potential at 10 mv of −2.53 for curcumin in water (FIG. 10B).

Data set [3] concerns melanoma cancer cells (Malme-3M). Description: 5-FU Cell Proliferation Assay (MTS Assay). In kind it is cell-based, human. Particulars: 24 μM, compared with 5-FU nanoemulsion. The procedure:
The in vitro activity of the 5-FU nanoemulsion was measured against three cancer cell lines (CCL-221, Malme-3M, and CCL-2) using a Cell Proliferation Assay (MTS Assay). The MTS Assay uses a tetrazolium compound (MTS) and an electron coupling reagent (PES) was purchased from Fisher Scientific (Pittsburgh, Pa.). The tetrazolium compound (MTS) can be bioreduced into a colored formazan product by dehydrogenase enzymes in metabolic cells. Formazan is a water-soluble compound and can be dissolved in the culture medium, the quantity of formazan product as measured by the absorbance at 490 nm was directly proportional to the number of living cells in culture.
After incubation for 5 hours, the cells were attached to the bottom of the well and the diluted nanoemulsions were then added and incubated for 48 hours. Subsequently, the media were removed by aspiration and 100 microliter of fresh phenol free cell culture media was pipetted followed by adding 20 microliter of MTS reagent into each well. The plate was incubated for 2 hours at 37 degrees C. in a humidified, 5% CO2 atmosphere and the 96-well plate reader was used to measure the absorbance at 490 nm. The 5-FU nanoemulsions prepared in this study had 20 nm average particle size.

Another data set has as its system PL-45 cells. Kind of data set: Paclitaxel growth inhibition, 48 hours. In kind it is cell-based, human. To be noted: PL-45, after 48 hours of treatment. The method, then:
FIG. 16C is a graph showing dose-dependant anti cancer activity of paclitaxel in DMSO and paclitaxel in a nanoemulsion made up of rice bran oil and Solutol® HS15 against PL-45 cells after 48 hours of treatment. The graphs indicate a 44% and 40% growth inhibition when treated with paclitaxel in DMSO and paclitaxel in nanoemulsion respectively. […] The error bars represent the standard error of mean for experiments done in duplicates.

A short description of data set [4]: Particle size by dynamic laser light scattering (Malvern Zetasizer-S). It is filed as physicochemical. The procedure: Unless otherwise indicated, “average particle size” refers to the z-average particle or droplet diameter measured by dynamic laser light scattering, also called Photon correlation spectroscopy (e.g., using the Malvern Zetasizer-S instrument, Malvern Instruments Inc., Southborough Mass.). Unless otherwise indicated, the z-average particle sizes were determined using the Malvern Zetasizer-S instrument with a 4 mW He—Ne laser operating at a wavelength of 633 nm and an avalanche photodiode detector (APD). The z-average diameter is the mean hydrodynamic diameter and the polydispersity index is an estimate of the width of the distribution. Both z-average diameter and polydispersity index (“PDI”) are calculated according to the International Standard on dynamic light scattering, ISO13321.
Particle sizes of all the formulations indicated in the Examples below were measured by dynamic laser light scattering, also called Photon correlation spectroscopy, using the Malvern Zetasizer-S instrument (Malvern Instruments Inc., Southborough Mass.). […] The particle diffusion (translational diffusion) due to Brownian motion was measured in the instrument and related to the size of the parameter. The mean hydrodynamic diameter (DH) was calculated from the Strokes-Einstein equation. The range of particle sizes which can be measured by the Zetasizer is from 0.6 to 6000 nm.

In the next data set the test system is P10.05 cells. Description: Paclitaxel growth inhibition, 48 hours. It is filed as cell-based, human. Particulars: P10.05, after 48 hours of treatment. From the text: (§1) The graphs indicate a 60% and 52% growth inhibition when treated with paclitaxel in DMSO and paclitaxel in nanoemulsion respectively. […] The error bars represent the standard error of mean for experiments done in duplicates.

The test system of the next data set is CCL-221 cells. Description: Paclitaxel growth inhibition, 48 hours. It is filed as cell-based, human. Particulars: CCl-221, after 48 hours of treatment.
Excerpt: as §1

For data set [5], the system named is Malme-3M melanoma cancer cells. Kind of data set: Curcumin cell inhibition, MTS assay after 72 hrs. It is filed as cell-based, human. The procedure:
The curcumin nanoemulsion was prepared by combining gelatin and EMG-20 or gelatin and Solutol® HS15 in a 1:1 weight ratio. The cell inhibition activity of the blank nanoemulsion, a 30 micromolar DMSO-curcumin mixture, a 0.030 micromolar DMSO-curcumin mixture, and a 0.03 micromolar curcumin nanoemulsion were contacted with melanoma cancer cell lines.
(In general: Tetrazolium assays rely on reduction of a dye to a coloured formazan, in cell work by metabolically active cells.)

For the compound Coumarin 6 [DMSO COUMARIN], the PDI in data set [1] (0 hrs) is recorded as 0.457; in data set [1] (72 hrs) it was 0.857; in data set [1] (96 hrs), 0.857; in data set [1] (120 hrs) it was 0.857; in data set [1] (144 hrs), 0.857; in data set [1] (240 hrs), 0.857. Also, the Size in data set [1] (0 hrs) turned out to be 1373; in data set [1] (72 hrs) it was 1373; in data set [1] (96 hrs) it was 2142; in data set [1] (120 hrs), 6000; in data set [1] (144 hrs) it was 6000; in data set [1] (240 hrs), 6000.
Take `COc1cc(/C=C/C(=O)CC(=O)/C=C/c2ccc(O)c(OC)c2)ccc1O` [curcumin in water, (1E,6E)-1,7-bis(4-hydroxy-3-methoxyphenyl)-1,6-heptadiene-3,5-dione]: the zeta wall potential in data set [2] was −2.53.
`O=c1[nH]cc(F)c(=O)[nH]1` [non-encapsulation 5-FU, 5-fluorouracil]: the “inhibition of cell proliferation” value in data set [3] is “not as effective”.
As to `CC(=O)O[C@H]1C(=O)[C@@]2(C)[C@H]([C@H](OC(=O)c3ccccc3)[C@]3(O)C[C@H](OC(=O)[C@H](O)[C@@H](NC(=O)c4ccccc4)c4ccccc4)C(C)=C1C3(C)C)[C@]1(OC(C)=O)CO[C@@H]1C[C@@H]2O` [paclitaxel in DMSO, paclitaxel], the growth inhibition in the data set with PL-45 cells is given as 44%; in the data set on P10.05 cells it was 60%; in the data set with CCL-221 cells, 60%. Further, in data set [4], the “average particle (droplet) size, Z-average” value is recorded as ≥ 1,000 nm.
For the compound `COc1cc(/C=C/C(=O)CC(=O)/C=C/c2ccc(O)c(OC)c2)ccc1O` [curcumin in DMSO, (1E,6E)-1,7-bis(4-hydroxy-3-methoxyphenyl)-1,6-heptadiene-3,5-dione], the results for the “inhibition of melanoma cancer cell proliferation” value in data set [5] (0.03 micromolar) and in data set [5] (30 micromolar) were “efficacy against the melanoma cancer cells is lost” and “inhibited melanoma cancer cell proliferation”, respectively.

Values taken from US20110206739A1, “COMPOSITIONS AND METHODS FOR THE PREPARATION OF NANOEMULSIONS” (UNIVERSITY OF MASSACHUSETTS, priority 2008, published 2011).
